Here are results for nine compounds from patent US12024489B2, “Complex salt of rupestonic acid and alkaloid, preparation method therefor and use thereof” (XIAMEN INSTITUTE OF RARE EARTH MATERIALS, priority 2022, dated 2024).

For orientation: IC50 means the point on the concentration scale where inhibition reaches its midpoint. Low readings indicate inhibition by little substance, high ones a need for much substance.

Assay [1] deals with cervical carcinoma cell line (Hela). The experiment in a line: In vitro anti-tumor activity test (CCK8), cervical carcinoma cell line. Type of assay: cell-based. The settings on record: Hela cells, 48 h incubation, CCK8, absorbance 450 nm. Here is the method:
(§1) The obtained Artemisia Rupestris complex salts were subjected to an in vitro anti-tumor activity test, in which the in vitro inhibitory activity of the Artemisia Rupestris complex salts on the lung adenocarcinoma cell line (A549) and cervical carcinoma cell line (Hela) was mainly researched. The specific test process was illustrated by the process for testing the lung adenocarcinoma cell line (A549):
(§2) The prepared Artemisia Rupestris complex salt was weighed, added into a 5 mL plastic centrifuge tube and diluted to
(§3) 1 mL with DMSO, to obtain a test sample at an initial concentration. Then the test sample at an initial concentration was serially diluted with DMSO to obtain test samples in 5 different concentration gradients in sequence, which were stored in a refrigerator at 4° C. for later use.
(§4) The lung adenocarcinoma cell line (A549) was incubated in an incubator for 24 h under the conditions of 37° C., 5% CO2, and saturated humidity. When the cells were in logarithmic growth phase, the culture supernatant was discarded, and the residue was digested with 0.25% trypsin-EDTA solution. Then, the digestion was terminated with high glucose medium. The cells were seeded in a 96-well plate with a cell density of 5000 cells/well. The 96-well plate was incubated in an incubator for 24 h. Then the cell culture supernatant in the 96-well plate was discarded. 100 μL of high glucose medium was added to the 96-well plate, and test samples at different concentrations were added to wells at 1 μL/well (5 duplicate wells were set for each concentration). After the plate was incubated in an incubator for 48 h under the conditions of 37° C., saturated humidity and 5% CO2, 10 μL of CCK8 was added to each well, and the plate was then incubated in the incubator at 37° C. for 1-4 h. The absorbance of each well at 450 nm was measured on a multifunctional microplate reader. Inhibition rate %=[(ODcontrol cells−ODtreatment cells)/(ODcontrol cells−ODblank)]×100. Negative control was a mixed solution of Vhigh glucose medium and VDMSO at a ratio of 10:1.
The process for testing the inhibition of those compounds on the cervical cancer cell line (Hela) was the same as above.

In assay [2] the test system is lung adenocarcinoma cell line (A549). Kind of assay: In vitro anti-tumor activity test (CCK8), lung adenocarcinoma cell line. Type of assay: cell-based. The settings on record: A549 cells, 48 h incubation, CCK8, absorbance 450 nm. Here is the method:
as §1, §2, §3, §4

`O=C1CCC[C@@H]2[C@H]3CCC[N+]4([O-])CCC[C@@H](CN12)[C@@H]34` (stereo partly shown) [Oxymatrine]: the IC50 in assay [1] (Homo sapiens) is 0.95 µM.
In assay [1], “complex salt of rupestonic acid and oxymatrine” returned an IC50 of 25.2 µM.
“complex salt of rupestonic acid and sophoridine”: the values for the 50% inhibitory concentration (IC50) in assay [1] and in assay [2] were 17.9 µM and 61.3 µM, respectively.
In the case of `O=C1CCC[C@@H]2[C@H]3CCCN4CCC[C@@H](CN12)[C@@H]34` [Matrine], the IC50 was found to be 774 µM in assay [1] (Homo sapiens) and 6370 µM in assay [2] (Homo sapiens).
For “complex salt of rupestonic acid and matrine”, the IC50 in assay [1] was 11.8 µM; in assay [2] it was 1.49 µM.
Regarding “complex salt of rupestonic acid and sophocarpine”, the concentration for half-maximal inhibition (IC50) in assay [1] was 115 µM; in assay [2] it was 714 µM.
As to `O=C1CCC[C@@H]2[C@H]3CCCN4CCC[C@H](CN12)[C@@H]34` [Sophoridine], the half-inhibitory concentration (IC50) worked out at 1490 µM in assay [1] (Homo sapiens) and 16000 µM in assay [2] (Homo sapiens).
For `O=C1C=CC[C@@H]2[C@H]3CCCN4CCC[C@@H](CN12)[C@@H]34` [Sophocarpine], in that order: 122 µM and 241 µM.
As for `C=C(C(=O)O)[C@H]1CC[C@H](C)[C@@H]2CC(=O)C(C)=C2C1` [Rupestonic acid], the “IC50 (μM) Hela” value in assay [1] is reported as “Inactive”. In assay [2], the “IC50 (μM) A549” value is given as “Inactive”.
